Experimental data as given in PubChem BioAssay AID1963977 (Molecular Pharmacology Branch, DTP, NCI, 2024).

Tested on: 624824-186-R-J3-PDC multicell spheroids, viability
Assay: Anticancer human tumor 624824-186-R-J3-PDC patient-derived colon adenocarcinoma cell line growth inhibition [PI3K]
Conditions: for IC50: curve of first compound; for viability, T/C: stronger effect = lower value; active = viability on the fitted dose curve at most 10% of control; inactive = the rest
Procedure, shortened: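 We assembled tumor spheroids that included a stromal compartment of HUVEC and MSCs, then exposed them to targeted agents alone and together with PI3K pathway inhibitors. Concentration series descended by half-log from clinically achievable Cmax levels. Viability served as the endpoint.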

[1] = second compound 0.0316 µM, first compound 0.0316 µM
[2] = second compound 0.0316 µM, first compound 0.1 µM
[3] = second compound 0.0316 µM, first compound 0.316 µM
[4] = second compound 0.0316 µM, first compound 1 µM
[5] = second compound 0.0316 µM, first compound 3.16 µM
[6] = second compound 0.0316 µM, first compound 10 µM
[7] = second compound 0.1 µM, first compound 0.0316 µM
[8] = second compound 0.1 µM, first compound 0.1 µM
[9] = second compound 0.1 µM, first compound 0.316 µM
[10] = second compound 0.1 µM, first compound 1 µM
[11] = second compound 0.1 µM, first compound 3.16 µM
[12] = second compound 0.1 µM, first compound 10 µM
[13] = second compound 0.316 µM, first compound 0.0316 µM
[14] = second compound 0.316 µM, first compound 0.1 µM
[15] = second compound 0.316 µM, first compound 0.316 µM
[16] = second compound 0.316 µM, first compound 1 µM
[17] = second compound 0.316 µM, first compound 3.16 µM
[18] = second compound 0.316 µM, first compound 10 µM
[19] = second compound 1 µM, first compound 0.0316 µM
[20] = second compound 1 µM, first compound 0.1 µM
[21] = second compound 1 µM, first compound 0.316 µM
[22] = second compound 1 µM, first compound 1 µM
[23] = second compound 1 µM, first compound 3.16 µM
[24] = second compound 1 µM, first compound 10 µM
[25] = second compound 3.16 µM, first compound 0.0316 µM
[26] = second compound 3.16 µM, first compound 0.1 µM
[27] = second compound 3.16 µM, first compound 0.316 µM
[28] = second compound 3.16 µM, first compound 1 µM
[29] = second compound 3.16 µM, first compound 3.16 µM
[30] = second compound 3.16 µM, first compound 10 µM
[31] = second compound 10 µM, first compound 0.0316 µM
[32] = second compound 10 µM, first compound 0.1 µM
[33] = second compound 10 µM, first compound 0.316 µM
[34] = second compound 10 µM, first compound 1 µM
[35] = second compound 10 µM, first compound 3.16 µM
[36] = second compound 10 µM, first compound 10 µM
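Also: spheroids exposed to agents for seven days before luminescence read.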
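For viability, T/C in this document: luminescent signal used as a stand-in for spheroid viability; percent viability relative to DMSO vehicle control wells taken as 100%.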

Cn1nccc1Nc1nccc(-c2ccn(C(CO)c3ccc(Cl)c(F)c3)c(=O)c2)n1 (stereo not given) + CC(Nc1ncnc2nc[nH]c12)c1cc2cccc(Cl)c2c(=O)n1-c1ccccc1
inactive: viability, T/C [1] 103% | viability, T/C [2] 93.9% | viability, T/C [3] 95.1% | viability, T/C [4] 76.9% | viability, T/C [5] 61.2% | viability, T/C [6] 57.4% | viability, T/C [7] 103% | viability, T/C [8] 85.4% | viability, T/C [9] 94.5% | viability, T/C [10] 74% | viability, T/C [11] 61.2% | viability, T/C [12] 57.3% | viability, T/C [13] 89.7% | viability, T/C [14] 88% | viability, T/C [15] 87% | viability, T/C [16] 72.7% | viability, T/C [17] 62.6% | viability, T/C [18] 51.8% | viability, T/C [19] 98.5% | viability, T/C [20] 88.2% | viability, T/C [21] 91.2% | viability, T/C [22] 77.7% | viability, T/C [23] 61.8% | viability, T/C [24] 49.4% | viability, T/C [25] 103% | viability, T/C [26] 88.1% | viability, T/C [27] 74.8% | viability, T/C [28] 63% | viability, T/C [29] 47.4% | viability, T/C [30] 38.5% | viability, T/C [31] 89.6% | viability, T/C [32] 81.7% | viability, T/C [33] 59.4% | viability, T/C [34] 43.5% | viability, T/C [35] 35.5% | viability, T/C [36] 30.2%
9.34 µM: IC50 (second compound 1 µM)
0.633 µM: IC50 (second compound 10 µM)
2.84 µM: IC50 (second compound 3.16 µM)
> 10 µM: IC50 (second compound 0.0316 µM) | IC50 (second compound 0.1 µM) | IC50 (second compound 0.316 µM)

Cn1ncnc1[C@H]1c2n[nH]c(=O)c3cc(F)cc(c23)N[C@@H]1c1ccc(F)cc1 + CC(Nc1ncnc2nc[nH]c12)c1cc2cccc(Cl)c2c(=O)n1-c1ccccc1
inactive: viability, T/C (second compound 0.0316 µM, first compound 0.000316 µM) 104% | viability, T/C (second compound 0.0316 µM, first compound 0.001 µM) 101% | viability, T/C (second compound 0.0316 µM, first compound 0.00316 µM) 135% | viability, T/C (second compound 0.0316 µM, first compound 0.01 µM) 104% | viability, T/C [1] 116% | viability, T/C [2] 117% | viability, T/C (second compound 0.1 µM, first compound 0.000316 µM) 104% | viability, T/C (second compound 0.1 µM, first compound 0.001 µM) 96.3% | viability, T/C (second compound 0.1 µM, first compound 0.00316 µM) 107% | viability, T/C (second compound 0.1 µM, first compound 0.01 µM) 102% | viability, T/C [7] 95.9% | viability, T/C [8] 120% | viability, T/C (second compound 0.316 µM, first compound 0.000316 µM) 99.2% | viability, T/C (second compound 0.316 µM, first compound 0.001 µM) 108% | viability, T/C (second compound 0.316 µM, first compound 0.00316 µM) 110% | viability, T/C (second compound 0.316 µM, first compound 0.01 µM) 106% | viability, T/C [13] 114% | viability, T/C [14] 118% | viability, T/C (second compound 1 µM, first compound 0.000316 µM) 98.5% | viability, T/C (second compound 1 µM, first compound 0.001 µM) 105% | viability, T/C (second compound 1 µM, first compound 0.00316 µM) 105% | viability, T/C (second compound 1 µM, first compound 0.01 µM) 101% | viability, T/C [19] 111% | viability, T/C [20] 111% | viability, T/C (second compound 3.16 µM, first compound 0.000316 µM) 109% | viability, T/C (second compound 3.16 µM, first compound 0.001 µM) 107% | viability, T/C (second compound 3.16 µM, first compound 0.00316 µM) 109% | viability, T/C (second compound 3.16 µM, first compound 0.01 µM) 110% | viability, T/C [25] 104% | viability, T/C [26] 112% | viability, T/C (second compound 10 µM, first compound 0.000316 µM) 97.8% | viability, T/C (second compound 10 µM, first compound 0.001 µM) 93% | viability, T/C (second compound 10 µM, first compound 0.00316 µM) 101% | viability, T/C (second compound 10 µM, first compound 0.01 µM) 98.2% | viability, T/C [31] 90.1% | viability, T/C [32] 95.1%
> 0.1 µM: IC50 (second compound 0.0316 µM) | IC50 (second compound 0.1 µM) | IC50 (second compound 0.316 µM) | IC50 (second compound 1 µM) | IC50 (second compound 3.16 µM) | IC50 (second compound 10 µM)

C=CC(=O)N1CCN(c2nc(=O)n(-c3c(C)ccnc3C(C)C)c3nc(-c4c(O)cccc4F)c(F)cc23)C(C)C1 (stereo not given) + Cc1nc(NC(=O)N2CCCC2C(N)=O)sc1-c1ccnc(C(C)(C)C(F)(F)F)c1
inactive: viability, T/C [1] 103% | viability, T/C [2] 108% | viability, T/C [3] 106% | viability, T/C [4] 94% | viability, T/C [5] 107% | viability, T/C [6] 113% | viability, T/C [7] 112% | viability, T/C [8] 101% | viability, T/C [9] 95.5% | viability, T/C [10] 110% | viability, T/C [11] 113% | viability, T/C [12] 105% | viability, T/C [13] 109% | viability, T/C [14] 109% | viability, T/C [15] 116% | viability, T/C [16] 106% | viability, T/C [17] 103% | viability, T/C [18] 103% | viability, T/C [19] 103% | viability, T/C [20] 108% | viability, T/C [21] 104% | viability, T/C [22] 116% | viability, T/C [23] 105% | viability, T/C [24] 101% | viability, T/C [25] 83.6% | viability, T/C [26] 92.8% | viability, T/C [27] 90.9% | viability, T/C [28] 78.7% | viability, T/C [29] 95.6% | viability, T/C [30] 78.5% | viability, T/C [31] 68.4% | viability, T/C [32] 69% | viability, T/C [33] 71.2% | viability, T/C [34] 76.1% | viability, T/C [35] 69.8% | viability, T/C [36] 65.3%
> 10 µM: IC50 (second compound 0.0316 µM) | IC50 (second compound 0.1 µM) | IC50 (second compound 0.316 µM) | IC50 (second compound 1 µM) | IC50 (second compound 3.16 µM) | IC50 (second compound 10 µM)

CC(C)NCC(C(=O)N1CCN(c2ncnc3c2C(C)CC3O)CC1)c1ccc(Cl)cc1 (stereo not given) + CC(Nc1ncnc2nc[nH]c12)c1cc2cccc(Cl)c2c(=O)n1-c1ccccc1
6.42 µM: IC50 (second compound 3.16 µM)
inactive: viability, T/C [1] 124% | viability, T/C [2] 99% | viability, T/C [3] 94.2% | viability, T/C [4] 80.5% | viability, T/C [5] 72.5% | viability, T/C [6] 52.4% | viability, T/C [7] 108% | viability, T/C [8] 89.1% | viability, T/C [9] 95.5% | viability, T/C [10] 81.2% | viability, T/C [11] 59.9% | viability, T/C [12] 56.2% | viability, T/C [13] 103% | viability, T/C [14] 103% | viability, T/C [15] 106% | viability, T/C [16] 79.2% | viability, T/C [17] 59.8% | viability, T/C [18] 54.2% | viability, T/C [19] 104% | viability, T/C [20] 110% | viability, T/C [21] 115% | viability, T/C [22] 74.7% | viability, T/C [23] 62.8% | viability, T/C [24] 45.8% | viability, T/C [25] 93% | viability, T/C [26] 89.7% | viability, T/C [27] 89.5% | viability, T/C [28] 71.6% | viability, T/C [29] 57.4% | viability, T/C [30] 45.7% | viability, T/C [31] 98.2% | viability, T/C [32] 89.5% | viability, T/C [33] 80% | viability, T/C [34] 72% | viability, T/C [35] 56% | viability, T/C [36] 48.7%
8.04 µM: IC50 (second compound 10 µM)
> 10 µM: IC50 (second compound 0.0316 µM) | IC50 (second compound 0.1 µM) | IC50 (second compound 0.316 µM) | IC50 (second compound 1 µM)

C[C@@H](NC(=O)c1ncnc(N)c1Cl)c1ncc(C(=O)Nc2cc(C(F)(F)F)c(Cl)cn2)s1 + Cc1nc(NC(=O)N2CCCC2C(N)=O)sc1-c1ccnc(C(C)(C)C(F)(F)F)c1
inactive: viability, T/C [1] 108% | viability, T/C [2] 99.1% | viability, T/C [3] 102% | viability, T/C [4] 97% | viability, T/C [5] 98.8% | viability, T/C [6] 103% | viability, T/C [7] 111% | viability, T/C [8] 106% | viability, T/C [9] 98.6% | viability, T/C [10] 103% | viability, T/C [11] 109% | viability, T/C [12] 91% | viability, T/C [13] 101% | viability, T/C [14] 114% | viability, T/C [15] 99% | viability, T/C [16] 98.6% | viability, T/C [17] 106% | viability, T/C [18] 72.6% | viability, T/C [19] 104% | viability, T/C [20] 110% | viability, T/C [21] 99.1% | viability, T/C [22] 97.8% | viability, T/C [23] 86.5% | viability, T/C [24] 52.4% | viability, T/C [25] 91.5% | viability, T/C [26] 85.5% | viability, T/C [27] 82.7% | viability, T/C [28] 75.8% | viability, T/C [29] 59.1% | viability, T/C [30] 30.7% | viability, T/C [31] 74.1% | viability, T/C [32] 76.4% | viability, T/C [33] 56% | viability, T/C [34] 46.2% | viability, T/C [35] 29.6% | viability, T/C [36] 21.5%
> 10 µM: IC50 (second compound 0.0316 µM) | IC50 (second compound 0.1 µM) | IC50 (second compound 0.316 µM) | IC50 (second compound 1 µM)
4.57 µM: IC50 (second compound 3.16 µM)
0.66 µM: IC50 (second compound 10 µM)
